This passage reports IC50 results from patent US20250236611A1, “PYRAZOLE COMPOUNDS AND USES THEREOF” (ALCON INC., priority 2021, published 2025).

The structures appear in SMILES notation.

As a reminder, the IC50 is the point on the concentration scale where inhibition reaches its midpoint. A high value points to lower potency.

Common to all, as to assay type: biochemical
Common to all, as to details: 10 nM JAK enzyme, 800 nM Abl peptide, room temperature 75 min

The target of assay [1] is T1, JAK3 (Homo sapiens, UniProt P52333).
T1 sequence (P52333 1-1124): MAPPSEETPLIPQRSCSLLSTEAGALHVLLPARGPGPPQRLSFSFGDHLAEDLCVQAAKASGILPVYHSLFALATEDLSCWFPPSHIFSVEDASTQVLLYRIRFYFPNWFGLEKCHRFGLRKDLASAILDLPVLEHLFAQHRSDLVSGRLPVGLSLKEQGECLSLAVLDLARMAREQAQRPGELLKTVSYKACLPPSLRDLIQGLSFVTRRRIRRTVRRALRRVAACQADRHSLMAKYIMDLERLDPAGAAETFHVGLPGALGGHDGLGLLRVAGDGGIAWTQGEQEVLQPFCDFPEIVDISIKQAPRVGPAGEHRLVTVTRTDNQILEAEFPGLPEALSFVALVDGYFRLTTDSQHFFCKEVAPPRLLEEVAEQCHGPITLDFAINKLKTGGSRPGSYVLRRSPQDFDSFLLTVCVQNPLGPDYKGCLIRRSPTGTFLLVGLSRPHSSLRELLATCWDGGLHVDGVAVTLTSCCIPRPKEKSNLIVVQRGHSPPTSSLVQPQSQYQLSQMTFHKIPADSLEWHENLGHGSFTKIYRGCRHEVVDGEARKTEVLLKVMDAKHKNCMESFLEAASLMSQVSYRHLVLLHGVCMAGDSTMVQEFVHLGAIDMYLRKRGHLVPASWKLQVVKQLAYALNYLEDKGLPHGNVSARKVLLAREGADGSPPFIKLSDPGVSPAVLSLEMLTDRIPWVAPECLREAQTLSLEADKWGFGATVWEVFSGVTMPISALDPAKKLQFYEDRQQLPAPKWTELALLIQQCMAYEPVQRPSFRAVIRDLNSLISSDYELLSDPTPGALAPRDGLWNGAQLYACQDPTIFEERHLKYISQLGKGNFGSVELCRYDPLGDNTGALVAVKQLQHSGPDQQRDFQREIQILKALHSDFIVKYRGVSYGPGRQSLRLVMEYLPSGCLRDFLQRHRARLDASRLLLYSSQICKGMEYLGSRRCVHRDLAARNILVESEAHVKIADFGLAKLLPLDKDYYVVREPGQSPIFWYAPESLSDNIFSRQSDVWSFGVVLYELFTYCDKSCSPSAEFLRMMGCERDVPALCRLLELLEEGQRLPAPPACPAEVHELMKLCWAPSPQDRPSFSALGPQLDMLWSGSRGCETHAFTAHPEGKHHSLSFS
Nature of the assay: JAK assay (KINASE-GLO luminescent kinase assay), JAK3. Here is the method: (§1) All compounds were initially prepared as 10 mM stocks in anhydrous dimethylsulfoxide (DMSO). A 20 μL aliquot of the 10 mM solutions was transferred to individual wells in column 1 of a 96-well polypropylene microtiter plate (Corning #3363) and diluted with DMSO to give a final compound concentration of 4 mM. Test compounds were then serially diluted 1:5 in DMSO for an 11-point concentration response and further diluted in the assay buffer bringing all compound concentrations to a final range of 100 μM to 10 pM in 2.5% DMSO. The assay was performed in white 96-well, flat-bottom, half-area, non-binding assay plate (Corning #3642) in assay buffer consisting of 20 mM HEPES (pH 7.5), 10 mM MgCl2*6H2O, 100 μM sodium orthovanadate, 0.05% CHAPS and 0.1% bovine serum albumin. A 10 μL aliquot of compound from each well of the intermediate dilution plate and 20 μL of a 2×JAK substrate/enzyme solution containing acceptor substrate (800 nM Abl peptide), JAK enzyme (10 nM JAK1, JAK2, JAK3, or TYK2), and 1,4-Dithiothreitol (DTT, 2 μM) were added to all wells. The reaction was initiated by the addition of 10 μL of 4× stock solution ATP (2 μM). Reactions were thoroughly mixed manually, covered and allowed to incubate at room temperature for 75 min. Protein kinase activity was quantitated using Promega's KINASE-GLO™ luminescent Kinase Assay Kit according to the manufacturer's directions. ATP concentrations remaining in Test wells following the termination of the enzymatic reaction were compared against control wells containing equivalent amounts of DMSO containing no inhibitor (CTRL). […] Percent of Control (POC) values were determined for each concentration of compound tested according to the equation:
(§2) [formula] • IC50 values were calculated using the following 4-parameter logistic curve-fitting algorithm:
(§3) [formula] • IC50 values were converted to Ki values using the Cheng-Prusoff Equation: […]

For assay [2], the target named is JAK2 (Homo sapiens, UniProt O60674). In words: JAK assay (KINASE-GLO luminescent kinase assay), JAK2. Here is the method:
as §1, §2, §3
(Kinase-Glo reads ATP consumption through a luciferase reaction.)

For assay [3], the target named is JAK1 (Homo sapiens, UniProt P23458). Nature of the assay: JAK assay (KINASE-GLO luminescent kinase assay), JAK1. Here is the method:
as §1, §2, §3

Assay [4] concerns the target TYK2 (Homo sapiens, UniProt P29597). Nature of the assay: JAK assay (KINASE-GLO luminescent kinase assay), TYK2. The protocol:
as §1, with “A 20 μL aliquot of the 10 mM solutions was transferred to individual wells in column 1 of a 96-well polypropylene microtiter plate (Corning #3363) and diluted with DMSO to give a final compound concentration of 4 mM.” left out
as §2, §3

Chain of JAK2 (O60674 whole entry): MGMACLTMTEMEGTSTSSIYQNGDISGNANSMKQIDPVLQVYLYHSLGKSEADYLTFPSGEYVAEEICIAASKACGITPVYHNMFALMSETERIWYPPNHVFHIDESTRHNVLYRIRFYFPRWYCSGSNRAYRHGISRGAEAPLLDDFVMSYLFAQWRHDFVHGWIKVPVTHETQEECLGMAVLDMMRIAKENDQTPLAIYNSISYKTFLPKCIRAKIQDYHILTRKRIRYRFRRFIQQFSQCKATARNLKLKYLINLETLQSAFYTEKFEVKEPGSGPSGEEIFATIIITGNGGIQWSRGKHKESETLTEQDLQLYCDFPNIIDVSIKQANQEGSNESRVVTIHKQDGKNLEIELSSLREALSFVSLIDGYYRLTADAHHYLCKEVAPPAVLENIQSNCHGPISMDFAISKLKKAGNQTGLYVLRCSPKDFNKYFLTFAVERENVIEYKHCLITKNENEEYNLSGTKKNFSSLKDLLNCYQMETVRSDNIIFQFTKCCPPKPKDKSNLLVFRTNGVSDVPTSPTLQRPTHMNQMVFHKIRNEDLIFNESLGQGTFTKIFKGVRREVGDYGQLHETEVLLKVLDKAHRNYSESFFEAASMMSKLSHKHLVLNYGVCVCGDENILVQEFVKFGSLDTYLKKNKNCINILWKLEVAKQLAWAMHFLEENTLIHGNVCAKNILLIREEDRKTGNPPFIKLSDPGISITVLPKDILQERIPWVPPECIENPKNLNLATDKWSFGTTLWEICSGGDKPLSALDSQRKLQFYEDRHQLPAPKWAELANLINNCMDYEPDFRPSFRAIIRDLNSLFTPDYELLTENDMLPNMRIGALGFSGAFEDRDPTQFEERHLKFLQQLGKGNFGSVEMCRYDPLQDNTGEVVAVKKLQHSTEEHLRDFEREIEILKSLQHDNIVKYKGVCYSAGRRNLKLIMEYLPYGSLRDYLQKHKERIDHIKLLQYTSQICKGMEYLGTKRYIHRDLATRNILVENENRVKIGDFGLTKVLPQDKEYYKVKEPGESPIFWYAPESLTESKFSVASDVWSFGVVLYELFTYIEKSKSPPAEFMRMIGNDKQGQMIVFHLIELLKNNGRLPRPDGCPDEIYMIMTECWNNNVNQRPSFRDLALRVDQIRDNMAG
Chain of TYK2 (P29597 whole entry): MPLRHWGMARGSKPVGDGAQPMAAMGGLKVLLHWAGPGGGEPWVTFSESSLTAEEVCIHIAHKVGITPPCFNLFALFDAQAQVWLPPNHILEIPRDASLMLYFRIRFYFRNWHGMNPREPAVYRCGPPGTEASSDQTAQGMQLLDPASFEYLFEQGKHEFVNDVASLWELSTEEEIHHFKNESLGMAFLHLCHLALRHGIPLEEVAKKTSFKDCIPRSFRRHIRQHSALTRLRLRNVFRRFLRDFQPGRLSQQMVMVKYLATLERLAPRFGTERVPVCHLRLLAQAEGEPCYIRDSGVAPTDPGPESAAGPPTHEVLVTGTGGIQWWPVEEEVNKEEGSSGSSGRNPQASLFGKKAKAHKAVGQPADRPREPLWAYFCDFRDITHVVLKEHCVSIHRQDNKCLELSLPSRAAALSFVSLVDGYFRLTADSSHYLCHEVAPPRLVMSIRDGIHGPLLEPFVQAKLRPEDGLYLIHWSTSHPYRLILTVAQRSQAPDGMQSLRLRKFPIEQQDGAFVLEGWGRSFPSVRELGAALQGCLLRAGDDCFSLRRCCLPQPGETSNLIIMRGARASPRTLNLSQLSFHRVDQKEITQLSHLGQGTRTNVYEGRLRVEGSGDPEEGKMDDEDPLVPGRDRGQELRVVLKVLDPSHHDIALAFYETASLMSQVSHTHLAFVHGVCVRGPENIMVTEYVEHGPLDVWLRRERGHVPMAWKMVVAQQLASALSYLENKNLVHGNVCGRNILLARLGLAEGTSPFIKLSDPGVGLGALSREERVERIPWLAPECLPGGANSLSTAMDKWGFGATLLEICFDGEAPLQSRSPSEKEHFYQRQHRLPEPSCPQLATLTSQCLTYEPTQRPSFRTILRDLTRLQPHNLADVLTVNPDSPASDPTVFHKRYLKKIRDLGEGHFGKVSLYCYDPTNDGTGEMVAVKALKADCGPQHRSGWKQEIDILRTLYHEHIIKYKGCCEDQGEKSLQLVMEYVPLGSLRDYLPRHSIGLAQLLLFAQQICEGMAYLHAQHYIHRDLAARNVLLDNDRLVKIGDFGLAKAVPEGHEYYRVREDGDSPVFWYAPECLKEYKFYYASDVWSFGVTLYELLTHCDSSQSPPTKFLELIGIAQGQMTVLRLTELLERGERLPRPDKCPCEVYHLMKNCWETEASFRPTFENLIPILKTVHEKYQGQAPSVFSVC
Chain of JAK1 (P23458 whole entry): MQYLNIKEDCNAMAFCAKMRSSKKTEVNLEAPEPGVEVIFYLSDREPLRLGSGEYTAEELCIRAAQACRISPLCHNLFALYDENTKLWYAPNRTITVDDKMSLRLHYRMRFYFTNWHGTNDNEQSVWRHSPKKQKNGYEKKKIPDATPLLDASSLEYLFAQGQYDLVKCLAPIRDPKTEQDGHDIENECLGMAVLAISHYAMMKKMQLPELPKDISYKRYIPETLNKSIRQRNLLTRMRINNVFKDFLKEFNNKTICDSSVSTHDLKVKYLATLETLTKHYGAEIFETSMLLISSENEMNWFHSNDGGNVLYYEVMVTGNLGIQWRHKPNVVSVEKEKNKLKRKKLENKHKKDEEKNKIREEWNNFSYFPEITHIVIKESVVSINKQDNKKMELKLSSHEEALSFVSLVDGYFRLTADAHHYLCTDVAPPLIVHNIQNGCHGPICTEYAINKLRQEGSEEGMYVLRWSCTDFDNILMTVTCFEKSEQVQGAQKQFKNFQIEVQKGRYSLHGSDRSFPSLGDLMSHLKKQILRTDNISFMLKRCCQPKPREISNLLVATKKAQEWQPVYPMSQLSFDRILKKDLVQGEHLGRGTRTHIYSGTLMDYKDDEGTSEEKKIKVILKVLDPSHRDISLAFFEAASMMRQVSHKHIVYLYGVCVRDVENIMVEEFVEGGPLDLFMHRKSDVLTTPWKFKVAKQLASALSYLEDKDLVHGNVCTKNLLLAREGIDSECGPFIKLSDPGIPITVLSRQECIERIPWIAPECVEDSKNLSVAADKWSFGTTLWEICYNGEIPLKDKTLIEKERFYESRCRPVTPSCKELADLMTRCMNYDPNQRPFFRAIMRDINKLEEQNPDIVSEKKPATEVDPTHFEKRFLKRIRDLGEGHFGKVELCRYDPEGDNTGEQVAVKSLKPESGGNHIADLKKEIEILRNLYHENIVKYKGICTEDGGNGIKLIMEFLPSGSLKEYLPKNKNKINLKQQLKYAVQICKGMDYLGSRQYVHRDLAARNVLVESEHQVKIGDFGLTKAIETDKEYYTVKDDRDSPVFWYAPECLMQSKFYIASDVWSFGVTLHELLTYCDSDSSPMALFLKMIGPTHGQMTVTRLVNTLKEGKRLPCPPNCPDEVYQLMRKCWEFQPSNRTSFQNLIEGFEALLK

For the compound `CC(C)(C)OC(=O)N1CC(CF)(Cn2cc(-c3nc(Nc4ccc(C(N)=O)cc4)ncc3Cl)cn2)C1` [CC(C)(C)OC(═O)N1CC(CF)(C1)C[N]2C═C], the IC50 in assay [1], in assay [2], in assay [3] and in assay [4] was below 100 nM in each case.

Regarding `Cc1cnc(NC(=O)Oc2ccc(Cl)cc2)nc1-c1cnn(CC2(CF)CC2)c1` [CC1═C(N═C(NC(═O)OC2═CC═C], the half-maximal inhibitory concentration (IC50) was below 100000 nM in assay [1], below 1000 nM in assay [2], below 100000 nM in assay [3] and below 100000 nM in assay [4].

For the compound `CS(=O)(=O)N(c1ncc(Cl)c(-c2cnn(CCC#N)c2)n1)S(C)(=O)=O` [C[S](═O)(═O)NC1═NC(═C], the IC50 in assay [1], in assay [2], in assay [3] and in assay [4] was below 100000 nM throughout.

Turning to `Cc1cc(Nc2nc3c(c(-c4cnn(CC5(C#N)COC5)c4)n2)CN(C(=O)OC(C)(C)C)C3)sn1` [CC1═NSC(═C1)NC2═NC(═C3CN], the IC50 in assay [1], in assay [2], in assay [3] and in assay [4] was above 50000 nM in each case.

Turning to `Cc1cnc(Nc2cccc(C(N)=O)c2)nc1-c1cnn(CC2(CF)CC2)c1` [CC1═C(N═C(NC2═CC═CC(═C2)C], the IC50 in assay [1] is below 100 nM; in assay [2] it was below 10 nM.

For the compound `N#CCCn1cc(-c2nc(Nc3cccc(C(=O)O)c3)ncc2Cl)cn1` [OC(═O)C1═CC═CC(═C1)NC2═NC], the IC50 was below 1000 nM in assay [1], below 10 nM in assay [2], below 1000 nM in assay [3] and below 1000 nM in assay [4].

`Cc1cnc(Nc2ccc(C3CN(C(=O)OC(C)(C)C)C3)cc2)nc1-c1cnn(CCC#N)c1` [CC1═C(N═C(NC2═CC═C(C═C2)C3CN]: the IC50 in assay [1] was below 100 nM; in assay [2] it was below 10 nM; in assay [3], below 100 nM; in assay [4] it was below 10 nM.

Turning to `Cc1cnc(NC2CCOCC2)nc1-c1cnn(CCC#N)c1` [CC1═C(N═C(NC2CCOCC2)N═C1)C3═C[N]], the IC50 in assay [1] is above 50000 nM; in assay [2], below 100000 nM; in assay [3] it was below 100000 nM; in assay [4], above 50000 nM.

With `Cc1cnc(Nc2cccc(CCO)c2)nc1-c1cnn(CC2(CF)CC2)c1` [CC1═C(N═C(NC2═CC(═CC═C2)CCO)N═C1)C3═C[N]], the IC50 in assay [1], in assay [2], in assay [3] and in assay [4] was below 10 nM throughout.

As for `Cc1ccc(Nc2ncc(C)c(-c3cnn(CC4(Cl)CC4)c3)n2)cc1S(C)(=O)=O` [CC1═CC═C(NC2═NC(═C(C)C═N2)C3═C[N]], the IC50 in assay [1], in assay [2], in assay [3] and in assay [4] was below 100 nM in each case.

Regarding `COC(=O)c1cccc(Nc2ncc(Cl)c(-c3cnn(CCC#N)c3)n2)c1` [COC(═O)C1═CC═CC(═C1)NC2═NC], the IC50 in assay [1] is below 10 nM; in assay [2], below 10 nM; in assay [3], below 100 nM; in assay [4], below 100 nM.

On to `Cn1ccc(Nc2ncc(Cl)c(-c3cnn(CCC#N)c3)n2)n1` [C[N]1C═CC(═N1)NC2═NC(═C], for which the IC50 in assay [1] is below 1000 nM; in assay [2] it was below 10 nM; in assay [3] it was below 1000 nM; in assay [4], below 1000 nM.

`Cc1cnc(NCCCN2CCOCC2)nc1-c1cnn(CCC#N)c1` [CC1═C(N═C(NCCCN2CCOCC2)N═C1)C3═C[N]]: the IC50 in assay [1] was above 50000 nM; in assay [2], below 100000 nM; in assay [3] it was above 50000 nM; in assay [4], below 100000 nM.

With `N#CCC1(Cn2cc(-c3nc(Nc4ccns4)ncc3C3CC3)cn2)CC1` [N#CCC1(CC1)C[N]2C═C(C═N2)C3═C], the IC50 was below 100 nM in assay [1], below 10 nM in assay [2], below 100 nM in assay [3] and below 100 nM in assay [4].

As to `CN1CCN(c2ccc(Nc3ncc(Cl)c(-c4cnn(CC5(C#N)CC5)c4)n3)cn2)CC1` [CN1CCN(CC1)C2═NC═C(NC3═NC(═C], the IC50 in assay [1] was below 100000 nM; in assay [2], below 1000 nM; in assay [3], below 100000 nM; in assay [4] it was below 100000 nM.

As for `N#CCCn1cc(-c2nc(Nc3ccc(C(=O)O)cc3)ncc2Cl)cn1` [OC(═O)C1═CC═C(NC2═NC(═C], the IC50 in assay [1] is below 100 nM; in assay [2], below 10 nM; in assay [3], below 10 nM; in assay [4] it was below 10 nM.

On to `Cc1cnc(Nc2ccc(CN3CCOCC3)cc2)nc1` [CC1═C(N═C(NC2═CC═C(CN3CCOCC3)C═C2)N═C1)], for which the IC50 in assay [1] is below 10 nM; in assay [2] it was below 10 nM; in assay [3], below 100 nM; in assay [4] it was below 100 nM.

For `COC1(c2ccc(Nc3ncc(C)c(-c4cnn(CC5(CF)CC5)c4)n3)cc2)COC1` [COC1(COC1)C2═CC═C(NC3═NC(═C], the IC50 in assay [1] was below 1000 nM; in assay [2], below 100 nM; in assay [3] it was 1880 nM; in assay [4], below 1000 nM.

Take `Cc1cnc(NCCN2CCOCC2)nc1-c1cnn(CCC#N)c1` [CC1═C(N═C(NCCN2CCOCC2)N═C1)C3═C[N]]: the values for the IC50 in assay [1], in assay [2] and in assay [3] were above 50000 nM, below 100000 nM and below 100000 nM, respectively.

Regarding `Cc1ccc(S(=O)(=O)Nc2ncc(Cl)c(-c3cnn(CCC#N)c3)n2)cc1` [CC1═CC═C(C═C1)[S](═O)(═O)NC2═NC], the IC50 in assay [2] and in assay [4] was below 100000 nM in each case.

For the compound `N#CCCn1cc(-c2nc(N(C(=O)c3ccccc3)C(=O)c3ccccc3)ncc2Cl)cn1` [ClC1═C(N═C(N═C1)N(C(═O)C2═CC═CC═C2)C], the IC50 in assay [2] is below 100000 nM.

Regarding `Cc1cnc(Nc2cccc3c2CN(C)C3)nc1-c1cnn(CC2(Cl)CC2)c1` [CN1CC2═CC═CC(═C2C1)NC3═NC(═C], the IC50 was below 100000 nM in assay [1], below 1000 nM in assay [2] and below 100000 nM in assay [3].

Take `Cc1cnc(Nc2ccns2)nc1-c1cnn(CC2(CF)CC2)c1` [CC1═C(N═C(NC2═CC═NS2)N═C1)C3═C[N]]: the IC50 in assay [2] is below 10 nM.
